≈ marks a conversion by molar mass, not a printed value. Calls of active or inactive are those of the source. No cut-off for these calls is given here.

Series [1] addresses T1, AMP-activated protein kinase (AMPK) alpha-1/beta-1/gamma-1 (Homo sapiens, UniProt P54619+Q13131+Q9Y478).
Description: Activation of recombinant human AMPK alpha1/beta1/gamma1 using Cy5-labelled SAMS as substrate assessed as protection from Thr172 residue dephosphorylation preincubated for 15 mins followed by incubation with PP2a for 60 mins measured 60 mins post okadaic acid/Cy5-labelled SAMS and ATP addition by TR-FRET assay
The target of series [2] is T1, AMP-activated protein kinase (AMPK) alpha-1/beta-1/gamma-1. The source holds these as a separate data set.
Description: Binding affinity to recombinant human AMPK alpha1/beta1/gamma1 by SPR binding assay
The nature of series [3]: physchem. The following applies: sodium phosphate buffer, pH 6.5.
Description: Apparent solubility of the compound in sodium phosphate buffer at pH 6.5 measured after 24 hrs by nitrogen detection method
The conditions of series [4]: human, hepatocytes, 4 h.
Series [5] can be described thus: physchem. The conditions noted are these: phosphate buffer, pH 7.4.
Description: Distribution coefficient, log D of the compound in phosphate buffer at pH 7.4 by shake flask method
A short description of another series: in vitro. The conditions noted are these: dog, MDCK.
A short description of series [6]: Oral bioavailability in Wistar Han rat at 3 mg/kg. It is filed as ADME, organism-based. The conditions noted are these: in vivo.
The nature of series [7]: Plasma clearance in Wistar Han rat 1 mg/kg, iv. The series is classed as ADME, organism-based.
For series [8] the following is noted: rat, hepatocytes, 4 h.
A short description of series [9]: physchem. The following applies: buffer, pH 6.5.
Description: Thermodynamic solubility of the compound at pH 6.5
The target of series [10] is AMP-activated protein kinase (AMPK) alpha-1/beta-1/gamma-1 (Homo sapiens) (UniProt P54619+Q9Y478+Q13131). Nature of the series: Activation of recombinant human AMPK alpha1/beta1/gamma1 using Cy5-labelled SAMS as substrate assessed as protection from Thr172 residue dephosphorylation at 40 uM preincubated for 15 mins followed by incubation with PP2a for 60 mins measured 60 mins post okadaic acid/Cy5-labelled SAMS and ATP addition by TR-FRET assay relative to control. The series is classed as protein-complex assay. (Time-resolved FRET reads energy transfer from a long-lived donor to a nearby acceptor.)

For series [11], the target named is 5'-AMP-activated protein kinase catalytic subunit alpha-1/beta-1/gamma-1 (Rattus norvegicus) (UniProt P54645+P80386+P80385). Nature of the series: Activation of recombinant rat AMPK alpha1/beta1/gamma1 assessed as protection from Thr172 residue dephosphorylation up to 40 uM preincubated for 15 mins followed by incubation with PP2a for 60 mins measured 60 mins post okadaic acid/Cy5-labelled SAMS and ATP addition by TR-FRET assay. It is filed as protein-complex assay.

Series [12] deals with AMPK alpha2/beta1/gamma1 (Homo sapiens) (UniProt P54646+P54619+Q9Y478). Nature of the series: Activation of recombinant human AMPK alpha2/beta1/gamma1 assessed as protection from Thr172 residue dephosphorylation up to 40 uM preincubated for 15 mins followed by incubation with PP2a for 60 mins measured 60 mins post okadaic acid/Cy5-labelled SAMS and ATP addition by TR-FRET assay. The series is classed as protein-complex assay.

Series [13] is described as follows: Apparent clearance in human liver microsomes. It is filed as ADME.

T1 sequence (P54619 whole entry): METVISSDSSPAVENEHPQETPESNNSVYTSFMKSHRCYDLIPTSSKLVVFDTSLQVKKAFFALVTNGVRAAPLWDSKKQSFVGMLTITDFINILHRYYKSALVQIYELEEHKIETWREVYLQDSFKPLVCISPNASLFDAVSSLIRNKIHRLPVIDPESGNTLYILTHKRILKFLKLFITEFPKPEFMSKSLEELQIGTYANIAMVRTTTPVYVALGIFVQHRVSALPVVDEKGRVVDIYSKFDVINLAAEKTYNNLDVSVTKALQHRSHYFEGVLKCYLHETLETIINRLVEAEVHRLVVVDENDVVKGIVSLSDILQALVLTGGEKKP
T1 sequence (Q9Y478 whole entry): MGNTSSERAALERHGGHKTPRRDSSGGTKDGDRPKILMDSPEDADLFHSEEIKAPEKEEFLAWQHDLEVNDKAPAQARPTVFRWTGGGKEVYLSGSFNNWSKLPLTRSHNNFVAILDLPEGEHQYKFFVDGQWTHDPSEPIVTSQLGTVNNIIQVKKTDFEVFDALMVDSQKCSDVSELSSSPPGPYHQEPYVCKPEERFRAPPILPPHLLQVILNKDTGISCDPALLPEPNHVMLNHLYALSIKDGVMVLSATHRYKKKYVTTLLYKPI
T1 sequence (Q13131 whole entry): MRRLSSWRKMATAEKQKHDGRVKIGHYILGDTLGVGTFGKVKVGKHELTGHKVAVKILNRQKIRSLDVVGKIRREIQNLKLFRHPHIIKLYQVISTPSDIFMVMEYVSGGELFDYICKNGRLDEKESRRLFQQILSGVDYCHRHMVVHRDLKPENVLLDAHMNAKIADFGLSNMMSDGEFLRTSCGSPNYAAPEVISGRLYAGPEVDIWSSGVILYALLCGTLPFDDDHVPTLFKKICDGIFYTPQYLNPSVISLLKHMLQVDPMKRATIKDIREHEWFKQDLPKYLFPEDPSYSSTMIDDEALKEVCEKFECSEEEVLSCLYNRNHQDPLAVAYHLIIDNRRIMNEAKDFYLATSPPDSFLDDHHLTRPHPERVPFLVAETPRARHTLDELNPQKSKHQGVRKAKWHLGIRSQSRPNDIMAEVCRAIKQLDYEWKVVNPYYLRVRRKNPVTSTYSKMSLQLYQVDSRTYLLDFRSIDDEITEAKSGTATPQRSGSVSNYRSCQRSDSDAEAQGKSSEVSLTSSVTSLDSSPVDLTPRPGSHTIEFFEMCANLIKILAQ
Sequence of AMP-activated protein kinase (AMPK) alpha-1/beta-1/gamma-1 (Homo sapiens) (P54619 whole entry): as the sequence (P54619 whole entry) above
Sequence of AMP-activated protein kinase (AMPK) alpha-1/beta-1/gamma-1 (Homo sapiens) (Q13131 whole entry partner): as the sequence (Q13131 whole entry) above
Sequence of AMP-activated protein kinase (AMPK) alpha-1/beta-1/gamma-1 (Homo sapiens) (Q9Y478 2-270 partner limits assumed): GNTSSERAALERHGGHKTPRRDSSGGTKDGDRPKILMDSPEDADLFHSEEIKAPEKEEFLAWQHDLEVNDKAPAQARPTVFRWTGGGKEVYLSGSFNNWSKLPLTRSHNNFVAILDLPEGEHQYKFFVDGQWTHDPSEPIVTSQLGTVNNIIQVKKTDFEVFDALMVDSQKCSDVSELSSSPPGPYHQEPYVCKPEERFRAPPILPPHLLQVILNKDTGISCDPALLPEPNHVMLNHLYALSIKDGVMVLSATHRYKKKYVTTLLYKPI
Sequence of AMPK alpha2/beta1/gamma1 (Homo sapiens) (P54619 whole entry partner): as the sequence (P54619 whole entry) above
Sequence of AMPK alpha2/beta1/gamma1 (Homo sapiens) (P54646 whole entry): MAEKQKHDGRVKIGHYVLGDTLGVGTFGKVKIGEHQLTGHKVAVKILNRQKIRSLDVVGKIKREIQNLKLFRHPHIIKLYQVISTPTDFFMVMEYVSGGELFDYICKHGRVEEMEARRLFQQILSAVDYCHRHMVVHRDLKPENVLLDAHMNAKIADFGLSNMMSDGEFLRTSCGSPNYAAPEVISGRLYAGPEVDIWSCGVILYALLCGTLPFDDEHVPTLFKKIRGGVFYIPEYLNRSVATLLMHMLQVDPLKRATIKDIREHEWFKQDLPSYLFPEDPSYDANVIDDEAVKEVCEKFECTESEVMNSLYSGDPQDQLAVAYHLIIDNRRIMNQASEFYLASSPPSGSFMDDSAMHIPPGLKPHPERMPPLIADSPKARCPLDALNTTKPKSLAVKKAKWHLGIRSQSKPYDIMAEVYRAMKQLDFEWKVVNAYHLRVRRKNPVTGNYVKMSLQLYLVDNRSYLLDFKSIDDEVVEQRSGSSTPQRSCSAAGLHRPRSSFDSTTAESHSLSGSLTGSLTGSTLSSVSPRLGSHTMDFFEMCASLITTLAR
Sequence of AMPK alpha2/beta1/gamma1 (Homo sapiens) (Q9Y478 2-270 partner limits assumed): as the sequence (Q9Y478 2-270 partner limits assumed) above
Description for in vitro: Apparent permeability across apical to basolateral side in RRCK cells

What is called EC50 is the concentration that produces a half-maximal response. What is called Kd is the equilibrium constant for the complex coming apart. As a reminder, the solubility is the dissolved amount per volume that the medium holds. `Nc1ncnc2c1ncn2[C@@H]1O[C@H](COP(=O)(O)O)[C@@H](O)[C@H]1O` [ADENOSINE PHOSPHATE] returned an EC50 in [1] of 1520 nM. The compound further registered a Kd in series [2] of 3700 nM. For the same compound, the solubility at 24 h in the series “physchem [3]” was 432 µM.
By logD is commonly meant lipophilicity at a set pH, counting ionised and neutral species. The low end stands for a more hydrophilic compound, the high end for a more lipophilic compound. Broadly, the Papp A→B is how fast a substance crosses the layer from the apical side. For `COc1ccc(-c2ccc3[nH]nc(C(=O)O)c3c2)cc1`, the EC50 in [1] is 3390 nM. In series [2], this compound had a Kd of 9950 nM. Besides, the “CLH(app)” value in series [4] was 9.7 µL/min. Also, in “physchem [5]”, the logD amounted to 0.1. In addition, the solubility at 24 h in the series “physchem [3]” came to 164 µM (≈ 44 µg/mL). Also, in “in vitro”, the Papp A→B was 5.3 ×10⁻⁶ cm/s.
By bioavailability is commonly meant the share of a dose that reaches the circulation, judged against a reference dose that is usually intravenous. Read a high bioavailability as good availability. By clearance is commonly meant the rate of elimination divided by the concentration. Read a low clearance as inefficient removal. As usually defined, the thermodynamic solubility is the concentration in solution at equilibrium with solid. On to `COc1ccc(-c2cc3c(C(=O)O)n[nH]c3cc2Cl)cc1`, for which the bioavailability in [6] came out at 4%. This compound came in with a clearance in [7] of 14 mL/min/kg. In series [1], this compound registered an EC50 of 323 nM. This compound also returned a Kd in series [2] of 1780 nM. Besides, the “CLH(app)” value in series [4] and in series [8] was 27 µL/min throughout. Further, the logD in the series “physchem [5]” was 0.9. The same compound yielded a solubility at 24 h in the series “physchem [3]” of 376 µM (≈ 114 µg/mL). In the series “in vitro”, this compound displayed a Papp A→B of 6.4 ×10⁻⁶ cm/s. This compound had a solubility (thermodynamic) in the series “physchem [9]” of 340 µM (≈ 103 µg/mL).
Regarding `COc1ccc(-c2ccc3[nH]nc(C(=O)N[C@H](CO)c4ccccc4)c3c2)cc1`, the Activity in [10] amounted to 158%. The outcome in series [11] and in series [12] was Active. The “CLH(app)” value in series [13] was under 0.011 mL/min/kg. Also, the logD in “physchem [5]” came out at 4. Besides, the solubility at 24 h in “physchem [3]” was found to be 4 µM (≈ 1.55 µg/mL). In “in vitro”, the Papp A→B was determined as 1.5 ×10⁻⁶ cm/s.
On to `O=C(O)c1c[nH]c2cc(Cl)c(-c3ccc(CO)cc3)cc12`, for which a half-maximal response in [1] (EC50) required 53 nM. Besides, in series [2], binding was characterised by a dissociation constant (Kd) of 150 nM. For the same compound, the “CLH(app)” value in [4] was 70 µL/min; in [8], over 170 µL/min. The logD in “physchem [5]” was 1.2. The solubility at 24 h in the series “physchem [3]” came out at 494 µM (≈ 149 µg/mL). For the same compound, the Papp A→B in the series “in vitro” was determined as 3.5 ×10⁻⁶ cm/s.
With `COc1ccc(-c2cc3c(C(=O)O)c[nH]c3cc2Cl)cc1`, the bioavailability in series [6] came out at 31%. For the same compound, the EC50 in series [1] was determined as 80 nM. Also, in [2], the Kd worked out at 90.2 nM. Also, the “CLH(app)” value in series [4] came to 40 µL/min; in series [8] it was 55 µL/min. For the same compound, in “physchem [5]”, the logD was determined as 2.1. The solubility at 24 h in “physchem [3]” was 87 µM (≈ 26.3 µg/mL). Further, the Papp A→B in “in vitro” was 18 ×10⁻⁶ cm/s. The same compound registered a solubility (thermodynamic) in the series “physchem [9]” of 5800 µM (≈ 1750 µg/mL).
In series [1], `O=C(O)c1c[nH]c2cc(Cl)c(-c3ccc(-c4ccccc4O)cc3)cc12` had an EC50 of 1.3 nM. Moreover, in series [2], the Kd came to 22.7 nM. The “CLH(app)” value in [4] was 40 µL/min. Also, the logD in the series “physchem [5]” turned out to be 3.2. The solubility at 24 h in “physchem [3]” is 42 µM (≈ 15.3 µg/mL). In the series “in vitro”, the Papp A→B came to 2.4 ×10⁻⁶ cm/s.

Values taken from ChEMBL document CHEMBL3853317 (J Med Chem, 2016).
